Assay results: patent publication US9359311B2, “Substituted aromatic oligomers” (NEUROSCIOS GMBH, priority 2011, dated 2016)
pIC50: −log10 of the molar value. “Also recorded” adds a separate entry of the source.

How the values were obtained:
[1] = biological target: T1, Human Aβ38, Aβ40 and Aβ42 (Homo sapiens, UniProt P05067); assay: Human Aβ38, Aβ40 and Aβ42 in SDS brain homogenate fraction of hAPPSL Tg mice after 90 days treatment; format: in vivo, mouse; details: twice daily i.p., p-FTAA 1 or 10 mg/kg/day, P9707_003 10 mg/kg/day
T1 construct: from tissue; host or cells: CSF and left brain hemisphere (SDS fraction) of transgenic hAPPSL mice
T1 sequence (P05067 672-713 limits assumed): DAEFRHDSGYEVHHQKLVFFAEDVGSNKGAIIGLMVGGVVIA
Procedure: (§1) Vehicle: Phosphate Buffered Saline (PBS; 6.7 mM PO4, 155 mM NaCl, pH=7.3-7.5) (BioWhittaker PBS from Lonza).
(§2) Test item (T.I.): p-FTAA and P9707_003 diluted in vehicle from stock solution in deionized water (10 mg/ml).
(§3) Tg hAPPSL: Transgenic hAPPSL mice over-expressing hAPP(751) under the control of the murine Thy-1 promoter with a C57BL/6xDBA background.
(§4) Human Aβ38, Aβ40 and Aβ42 were determined in homogenates of the left brain hemispheres and in CSF samples of all Tg animals by an immunosorbent assay from Mesoscale Discovery
48 hAPP Tg mice plus 4 reserves allocated to 4 different treatment groups were treated with either vehicle only (control), p-FTAA or P9707_003. As an additional control, 12 nTg littermates of the hAPPSL mice (plus 1 reserve) were treated with vehicle only. Starting at 6.5 months of age, female hAPPSL mice were treated with vehicle only, p-FTAA (dosage: 1 or 10 mg/kg/day) or P9707_003 (dosage: 10 mg/kg/day) for 90 days. […]
(§5) In the brain homogenate SDS fraction and in CSF of each Tg mouse, human Aβ38, Aβ40 and Aβ42 levels were measured with a Aβ-kit from Mesoscale Discovery. Aβ levels were evaluated in comparison to a peptide standard as pg/mg brain (wet weight) or pg/ml CSF.
Descriptive statistical analysis was performed on all evaluated parameters. […] Group differences between all Tg groups were calculated by a parametric ANOVA followed by a Bonferroni post test.

primary chicken neurons = assay: Inhibition of Abeta 1-42 toxicity on primary chicken neurons (MTT); format: cell-based; set-up: key: No: no effect; +: minor positive effect on cell viability in the presence of aggregated Aβ 1-42; ++: medium positive effect on cell viability in the presence of aggregated Aβ 1-42; +++: strong positive effect on cell viability in the presence of aggregated Aβ 1-42; details: 10 μM Aβ1-42 aggregated together with compound for 48 h
Procedure: One-day-old fertilized eggs are stored under appropriate conditions until start of breeding. On embryonic day 0 eggs are transferred to the breeding incubator and under turning, kept at 37.8° C. and 55% humidity until embryonic day eight. Neurons are prepared as follows: In short, embryos are transferred to a plastic dish, and decapitated. Both brain hemispheres are removed, collected and any loose tissue removed. Hemispheres are mechanically dissociated and 4.8×10^4 cells per well (96-well plates) are seeded in a volume of 160 μl.
Aβ1-42 (MW 4514.1) was obtained from American Peptide Company as a lyophilized powder. A stock solution of 340 μM Aβ1-42 was prepared in 50 mM Tris-Buffer, 150 mM NaCl, pH7.6 according to the manufacturer's instructions. After sonication, the stock solution is diluted 1:1 with the test compounds to obtain a concentration of 170, 17 and 1.7 μM. After aggregation at 4° C. for 48 h, the solutions are sonicated again prior to application to the cells. The final concentration of Aβ1-42 applied to the primary chicken neurons is 10 μM.
Aβ1-42 aggregated together with compound for 48 hrs was applied to chicken neurons at DIV4 (days in vitro) and analyzed at DIV10 (144 hrs) and all others were applied to chicken neurons at DIV6 and analysed at DIV10 (96 hrs).
Viability of cultures is determined by the MTT assay. The MTT assay allows for the measurement of the mitochondrial dehydrogenase activity which reduces yellow MTT to dark blue formazan crystals. Since this reaction is catalyzed in living cells only this assay is used for the determination of cell viability. MTT solution is added to each well in a final concentration of 0.5 mg/ml. After 2 hours the MTT containing medium is aspired. Cells are lysed in 3% SDS and the formazan crystals are dissolved in isopropanol/HCl. Optical density is measured with a plate-reader at wavelength 570 nm. Cell survival rate is expressed as a percentage of optical density (OD) relative to control cells not treated with Aβ or compound.

[2] = biological target: T1, Human Aβ38, Aβ40 and Aβ42; assay: Human Aβ38, Aβ40 and Aβ42 in CSF of hAPPSL Tg mice after 90 days treatment (immunosorbent assay); format: in vivo, mouse; details: twice daily i.p.
Procedure: as §1, §2, §3, §4
48 hAPP Tg mice plus 4 reserves allocated to 4 different treatment groups were treated with either vehicle only (control), p-FTAA or P9707_003. As an additional control, 12 nTg littermates of the hAPPSL mice (plus 1 reserve) were treated with vehicle only. Starting at 6.5 months of age, female hAPPSL mice were treated with vehicle only, p-FTAA (dosage: 1 or 10 mg/kg/day) or P9707_003 (dosage: 10 mg/kg/day) for 90 days. The Test Items (T.I.s) were administered in Vehicle. Compound and vehicle were administered twice daily i.p. for 90 days. Tg hAPPSL mice with a C57BL/6xDBA background and corresponding nTg littermates at an age of 6.5 months (±2 weeks) were randomly assigned to the treatment groups.
as §5
Descriptive statistical analysis was performed on all evaluated parameters. All data were represented as mean±standard error of mean (SEM). Grubb's test was used to detect outliers. Normality distribution of the values was tested with Kolmogorov Smirnov normality distribution test. Group differences between all Tg groups were calculated by a parametric ANOVA followed by a Bonferroni post test.

biotinylated Aβ1-42 = biological target: T2, biotinylated Aβ1-42 (Homo sapiens, UniProt P05067); assay: Inhibition of Abeta oligomerisation (biotinylated Aβ1-42, neutravidin plate, streptavidin-HRP); format: biochemical; details: inhibition of Aβ1-42 aggregation, approximately 12 nM Aβ1-42, PBS pH 7.4, 2% DMSO, 30 min RT
T2 construct: To assure monomerisation of biotinylated Aβ1-42 (Anaspec #23523-0.5) the peptide was thoroughly monomerised; purchased Anaspec 23523-0.5
T2 sequence (P05067 672-713 limits assumed): as above

Structure (SMILES): O=C(O)Cc1ccsc1-c1ccc(-c2sc(-c3ccc(-c4cc(CC(=O)O)c(-c5ccc(-c6sccc6CC(=O)O)s5)s4)s3)cc2CC(=O)O)s1 [Example 1, 2-(2-{5-[3-(Carboxymethyl)-5-{5-[4-(carboxymethyl)-5-{5-[3-(carboxymethyl)thiophen-2-yl]thiophen-2-yl}thiophen-2-yl]thiophen-2-yl}thiophen-2-yl]thiophen-2-yl}thiophen-3-yl)acetic acid]
- aggregated Aβ38, Aβ40 and Aβ42 in SDS fraction of brain homogenate [1]: significant decrease; also recorded: reduced
- Rescue of Abeta toxicity (MTT) (primary chicken neurons; Conc. 0.1 μM): no
- Rescue of Abeta toxicity (MTT) (primary chicken neurons; Conc. 1 μM): +++
- Rescue of Abeta toxicity (MTT) (primary chicken neurons; Conc. 10 μM): +++
- Mean Aβ levels in CSF, relative to vehicle control (PBS control) ([2]; 10 mg/kg/day, female hAPPSL Tg mice, Aβ38, Aβ40, Aβ42, % of vehicle control): about 60%
- CSF Aβ levels ([2]; hAPPSL Tg mice, p-FTAA 1 or 10 mg/kg/day, P9707_003 10 mg/kg/day): decreased
- pIC50 (biotinylated Aβ1-42): 6.10
